Species on record: Rattus norvegicus
Assay: Open TG-GATES - Regimen: Daily Repeat
Type: toxicity, organism-based, Sprague-Dawley
Set-up: regimen Daily Repeat, gender Male, age 6 weeks
Conditions: in vivo, po, 0 mg/kg, route gavage, dose level Control; for APTT / Bas / Eos / Fbg / Hb / Ht / Lym / MCH / MCHC / MCV / Mono / Neu / PT / Plat / RBC / Ret / WBC: tissue Blood; for KIDNEY_L / KIDNEY_R / KIDNEY_TOTAL: tissue Kidney; for LIVER: tissue Liver; for A/G / ALP / ALT / AST / BUN / CRE / Ca / Cl / DBIL / GLC / IP / K / LDH / Na / PL / RALB / TBIL / TC / TG / TP / gamma-GTP: tissue Plasma

Work on `Nc1ccc(Cc2ccc(N)cc2)cc1` yielded a TERMINAL_BW (72 h, time 3 day) of 240.9 g, an APTT (72 h, time 3 day) of 13.2 s and a Bas (72 h, time 3 day) of 0%. It also gave an Eos (72 h, time 3 day) of 1%, a Fbg (72 h, time 3 day) of 284.6 mg/dL and a Hb (72 h, time 3 day) of 13.1 g/dL. For the same molecule, the Ht (72 h, time 3 day) was 38.4%, the Lym (72 h, time 3 day) was 75% and the MCH (72 h, time 3 day) was 21.1 pg. It also gave an MCHC (72 h, time 3 day) of 34%, an MCV (72 h, time 3 day) of 62.1 fL and a Mono (72 h, time 3 day) of 2.8%. The Neu (72 h, time 3 day) was 20.2%, the PT (72 h, time 3 day) was 11.7 s and the Plat (72 h, time 3 day) was 134 x10_4/uL. For the same molecule, the RBC (72 h, time 3 day) was 618.2 x10_4/ul, the Ret (72 h, time 3 day) was 6.4% and the WBC (72 h, time 3 day) was 93.3 x10_2/uL. For the same molecule, the KIDNEY_L (72 h, time 3 day) was 1 g, the KIDNEY_R (72 h, time 3 day) was 1 g and the KIDNEY_TOTAL (72 h, time 3 day) was 2 g. The LIVER (72 h, time 3 day) was 11.1 g, the A/G (72 h, time 3 day) was 0.8 and the ALP (72 h, time 3 day) was 1856.4 IU/L. For the same molecule, the ALT (72 h, time 3 day) was 42 IU/L, the AST (72 h, time 3 day) was 71.6 IU/L and the BUN (72 h, time 3 day) was 15.2 mg/dL. It also gave a CRE (72 h, time 3 day) of 0.2 mg/dL, a Ca (72 h, time 3 day) of 11 mg/dL and a Cl (72 h, time 3 day) of 105.4 meq/L. For the same molecule, the DBIL (72 h, time 3 day) was 0.018 mg/dL, the GLC (72 h, time 3 day) was 177.2 mg/dL and the IP (72 h, time 3 day) was 7.6 mg/dL. For the same molecule, the K (72 h, time 3 day) was 4 meq/L, the LDH (72 h, time 3 day) was 76.6 IU/L and the Na (72 h, time 3 day) was 142.8 meq/L. It also gave a PL (72 h, time 3 day) of 139 mg/dL, an RALB (72 h, time 3 day) of 2.6 g/dL and a TBIL (72 h, time 3 day) of 0.038 mg/dL. For the same molecule, the TC (72 h, time 3 day) was 75 mg/dL, the TG (72 h, time 3 day) was 108.2 mg/dL and the TP (72 h, time 3 day) was 5.8 g/dL. It also gave a gamma-GTP (72 h, time 3 day) of 1 IU/L, a TERMINAL_BW ([…], time 7 day) of 282.7 g and a TERMINAL_BW ([…], time 14 day) of 342.6 g. For the same molecule, the TERMINAL_BW ([…], time 28 day) was 438.3 g, the APTT ([…], time 7 day) was 15.2 s and the Bas ([…], time 7 day) was 0.2%. The Eos ([…], time 7 day) was 0.8%, the Fbg ([…], time 7 day) was 277.4 mg/dL and the Hb ([…], time 7 day) was 13.6 g/dL. The Ht ([…], time 7 day) was 39.5%, the Lym ([…], time 7 day) was 75.4% and the MCH ([…], time 7 day) was 20.9 pg. It also gave an MCHC ([…], time 7 day) of 34.5%, an MCV ([…], time 7 day) of 60.7 fL and a Mono ([…], time 7 day) of 2.2%. It also gave a Neu ([…], time 7 day) of 20.4%, a PT ([…], time 7 day) of 11.4 s and a Plat ([…], time 7 day) of 137.3 x10_4/uL. It also gave an RBC ([…], time 7 day) of 650.6 x10_4/ul, a Ret ([…], time 7 day) of 5.3% and a WBC ([…], time 7 day) of 99.1 x10_2/uL. For the same molecule, the APTT ([…], time 14 day) was 14.9 s, the Bas ([…], time 14 day) was 0.2% and the Eos ([…], time 14 day) was 1%. The Fbg ([…], time 14 day) was 273 mg/dL, the Hb ([…], time 14 day) was 13.4 g/dL and the Ht ([…], time 14 day) was 39%. The Lym ([…], time 14 day) was 73.8%, the MCH ([…], time 14 day) was 20.2 pg and the MCHC ([…], time 14 day) was 34.1%. It also gave an MCV ([…], time 14 day) of 59.3 fL, a Mono ([…], time 14 day) of 2.2% and a Neu ([…], time 14 day) of 22.6%. For the same molecule, the PT ([…], time 14 day) was 11.2 s, the Plat ([…], time 14 day) was 158.2 x10_4/uL and the RBC ([…], time 14 day) was 661.2 x10_4/ul. For the same molecule, the Ret ([…], time 14 day) was 7.2%, the WBC ([…], time 14 day) was 97.7 x10_2/uL and the APTT ([…], time 28 day) was 17.5 s. The Bas ([…], time 28 day) was 0.4%, the Eos ([…], time 28 day) was 0.8% and the Fbg ([…], time 28 day) was 284.2 mg/dL. The Hb ([…], time 28 day) was 14.9 g/dL, the Ht ([…], time 28 day) was 42.2% and the Lym ([…], time 28 day) was 78%. The MCH ([…], time 28 day) was 20.2 pg, the MCHC ([…], time 28 day) was 35.3% and the MCV ([…], time 28 day) was 57.2 fL. The Mono ([…], time 28 day) was 2%, the Neu ([…], time 28 day) was 17.6% and the PT ([…], time 28 day) was 11.9 s. For the same molecule, the Plat ([…], time 28 day) was 120.3 x10_4/uL, the RBC ([…], time 28 day) was 738.4 x10_4/ul and the Ret ([…], time 28 day) was 2.2%. It also gave a WBC ([…], time 28 day) of 122.3 x10_2/uL, a KIDNEY_L ([…], time 7 day) of 1.2 g and a KIDNEY_R ([…], time 7 day) of 1.1 g. The KIDNEY_TOTAL ([…], time 7 day) was 2.3 g, the KIDNEY_L ([…], time 14 day) was 1.3 g and the KIDNEY_R ([…], time 14 day) was 1.2 g. For the same molecule, the KIDNEY_TOTAL ([…], time 14 day) was 2.5 g, the KIDNEY_L ([…], time 28 day) was 1.5 g and the KIDNEY_R ([…], time 28 day) was 1.4 g. It also gave a KIDNEY_TOTAL ([…], time 28 day) of 2.9 g, an LIVER ([…], time 7 day) of 12.4 g and an LIVER ([…], time 14 day) of 14.8 g. For the same molecule, the LIVER ([…], time 28 day) was 17.8 g, the A/G ([…], time 7 day) was 0.9 and the ALP ([…], time 7 day) was 1837.2 IU/L. For the same molecule, the ALT ([…], time 7 day) was 37 IU/L, the AST ([…], time 7 day) was 63.8 IU/L and the BUN ([…], time 7 day) was 17 mg/dL. It also gave a CRE ([…], time 7 day) of 0.2 mg/dL, a Ca ([…], time 7 day) of 11 mg/dL and a Cl ([…], time 7 day) of 106 meq/L. For the same molecule, the DBIL ([…], time 7 day) was 0.022 mg/dL, the GLC ([…], time 7 day) was 177.6 mg/dL and the IP ([…], time 7 day) was 6.8 mg/dL. For the same molecule, the K ([…], time 7 day) was 4.1 meq/L, the LDH ([…], time 7 day) was 65.6 IU/L and the Na ([…], time 7 day) was 143.2 meq/L. The PL ([…], time 7 day) was 138.6 mg/dL, the RALB ([…], time 7 day) was 2.7 g/dL and the TBIL ([…], time 7 day) was 0.066 mg/dL. For the same molecule, the TC ([…], time 7 day) was 70.6 mg/dL, the TG ([…], time 7 day) was 106 mg/dL and the TP ([…], time 7 day) was 5.8 g/dL. For the same molecule, the gamma-GTP ([…], time 7 day) was 1 IU/L, the A/G ([…], time 14 day) was 0.8 and the ALP ([…], time 14 day) was 1483.2 IU/L. It also gave an ALT ([…], time 14 day) of 36.6 IU/L, an AST ([…], time 14 day) of 58.6 IU/L and a BUN ([…], time 14 day) of 15.4 mg/dL. The CRE ([…], time 14 day) was 0.2 mg/dL, the Ca ([…], time 14 day) was 11 mg/dL and the Cl ([…], time 14 day) was 104.6 meq/L. It also gave a DBIL ([…], time 14 day) of 0.022 mg/dL, a GLC ([…], time 14 day) of 172.2 mg/dL and an IP ([…], time 14 day) of 6.3 mg/dL. For the same molecule, the K ([…], time 14 day) was 3.9 meq/L, the LDH ([…], time 14 day) was 79.4 IU/L and the Na ([…], time 14 day) was 143.2 meq/L. The PL ([…], time 14 day) was 147 mg/dL, the RALB ([…], time 14 day) was 2.7 g/dL and the TBIL ([…], time 14 day) was 0.052 mg/dL. It also gave a TC ([…], time 14 day) of 76.6 mg/dL, a TG ([…], time 14 day) of 133.4 mg/dL and a TP ([…], time 14 day) of 6.2 g/dL. It also gave a gamma-GTP ([…], time 14 day) of 1 IU/L, an A/G ([…], time 28 day) of 0.7 and an ALP ([…], time 28 day) of 1089.4 IU/L. For the same molecule, the ALT ([…], time 28 day) was 34.4 IU/L, the AST ([…], time 28 day) was 56.6 IU/L and the BUN ([…], time 28 day) was 15.2 mg/dL. For the same molecule, the CRE ([…], time 28 day) was 0.2 mg/dL, the Ca ([…], time 28 day) was 10.9 mg/dL and the Cl ([…], time 28 day) was 105.2 meq/L. It also gave a DBIL ([…], time 28 day) of 0.02 mg/dL, a GLC ([…], time 28 day) of 176.4 mg/dL and an IP ([…], time 28 day) of 5.9 mg/dL. For the same molecule, the K ([…], time 28 day) was 3.7 meq/L, the LDH ([…], time 28 day) was 67.6 IU/L and the Na ([…], time 28 day) was 144.4 meq/L. For the same molecule, the PL ([…], time 28 day) was 141.2 mg/dL, the RALB ([…], time 28 day) was 2.7 g/dL and the TBIL ([…], time 28 day) was 0.058 mg/dL. The TC ([…], time 28 day) was 67.8 mg/dL, the TG ([…], time 28 day) was 168.2 mg/dL and the TP ([…], time 28 day) was 6.4 g/dL. It also gave a gamma-GTP ([…], time 28 day) of 1 IU/L.

— ChEMBL document CHEMBL3885861, “Open TG-GATES”
